Source: PubChem BioAssay AID2305 (GlaxoSmithKline (GSK), 2010)

What follows are compounds tested on P. falciparum 3D7 growth, pLDH absorbance (assay: P. falciparum 3D7 growth inhibition, dose response, strain 3D7 (AID 2305)).

Structure (SMILES) | IC50
CN(Cc1cccc(O)c1)C1CCN(c2cc(NC(=O)c3ccc(F)cc3)ccn2)CC1 | 0.96 µM
c1cncc(Oc2ccc(Nc3ccnc4cc(-c5cccc(CN6CCCCC6)c5)ccc34)cc2)c1 | 0.12 µM
CCOc1cc(C(=O)Nc2ccc(-c3nc4ccccc4[nH]3)cc2)cc(OCC)c1OCC | 0.23 µM
CN(C)c1nc(NN=Cc2cc(Cl)ccc2O)nc(Nc2ccc(F)cc2)n1 | 0.84 µM
Cc1ccccc1C1CCN(C2CCC(NC(=O)/C=C/c3ccc4c(c3)OC(F)(F)O4)CC2)CC1 (stereo unspecified) | 0.67 µM
O=S(=O)(c1cccc(Br)c1)N1CCCCC(c2ccc(C(F)(F)F)cc2)=N1 | 0.55 µM
CCOc1ccc(-c2cc3nc(C4CCNCC4)c(C(=O)Nc4ccc(C)cc4Cl)cn3n2)cc1 | 0.92 µM
CCc1ccc(C(=O)NC(=O)c2ccccc2O)cc1 | 0.61 µM
Cc1ccc(NC(=O)NC2CCN(CCCCCNC(=O)/C=C/c3ccc(Cl)c(Cl)c3)CC2)cc1 | 0.69 µM
Clc1ccc2c(NCCc3ccccc3)ccnc2c1 | 0.49 µM
O=C(Nc1ccc(OC2CCN(Cc3ccc(F)cc3)CC2)c(Cl)c1)c1ccccc1 | 0.79 µM
Cc1c(CNCCCNc2cc(=O)c3ccccc3[nH]2)sc(C(F)=C(F)F)c1Br | 0.84 µM
CCc1nc(N)nc(N)c1-c1ccc(F)cc1 | 0.41 µM
Cc1nc2ccc3ccc(CNc4ccc(C(=O)N[C@@H](CCC(=O)O)C(=O)O)c(F)c4)cc3c2c(=O)[nH]1 | 0.4 µM
O=C1COC(c2ccccc2)(c2ccccc2)CN1CC1CCN(Cc2ccc(O)cc2Cl)C1 (stereo unspecified) | 1 µM
C=CCN1C(=O)C(C(C)=O)=C(O)C1c1ccccc1 (stereo unspecified) | 0.05 µM
Cc1cccc2[nH]c(-c3ccc(-c4ccc(CNCCCN5CCCC5=O)cc4)cc3)nc12 | 0.63 µM
Cc1ccc2[nH]c(-c3ccccc3N)cc2c1 | 0.92 µM
c1ccc2c(c1)ncn2-c1ccnc(Nc2ccncc2)n1 | 0.65 µM
c1cc(-c2ccc(CNC3CCOCC3)cc2)cc(-c2nc3ccccc3[nH]2)c1 | 0.77 µM
COc1cc(CNC2Cc3ccccc3C2)ccc1Oc1ccc2nc[nH]c2c1 | 0.95 µM
CN1CCC(Oc2ccc(CN3CC[C@H](NC(=O)c4cc(F)cc(F)c4)C3)c3ccccc23)C1 (stereo partly specified) | 0.84 µM
COc1cc(CN2CCC(NC(=O)[C@H](Cc3ccccc3)NC(=O)Nc3ccc(Oc4ccccc4)cc3)C2)ccc1O (stereo partly specified) | 0.81 µM
Cc1ccccc1C1CCN(c2ccc(C(=O)NC3CC3)cn2)CC1 | 0.85 µM

Structure (SMILES) | IC50
CC(C)NCc1ccc(-c2ccc(NC(=O)c3ccc(Cl)cc3)cc2)cc1 | 0.91 µM
COc1cc(C(=O)N2[C@@H](c3nccs3)[C@@H](C(=O)N(OC)C(C)c3ccccc3)C[C@@]2(CC(C)C)C(=O)OC(C)(C)C)ccc1C(C)(C)C (stereo partly specified) | 1.07 µM
COc1ccc2nccc([C@@H](O)CN3CCC(NC(=O)c4[nH]c5ccccc5c4-c4ccccc4)CC3)c2c1 | 0.9 µM
CN(C)Cc1c(O)ccc2[nH]c(-c3ccc(F)cc3F)nc12 | 1.3 µM
CC(C)(C)Oc1ccc(CC2NC3(C(=O)N(Cc4ccc(C(C)(C)C)cc4)c4ccccc43)C3C(=O)N(c4ccc(Br)cc4)C(=O)C23)cc1 (stereo unspecified) | 0.72 µM
CCCCCN1CCC(NC(=O)c2ccc(C(=O)Nc3ccc(C(C)C)cc3)cc2)CC1 | 0.85 µM
CCCCc1ccc(-c2nc(NC(=O)Nc3nc(-c4ccccc4)[nH]c3C(=O)OCC)c(C(=O)OCC)[nH]2)cc1 | 0.75 µM
CC(=O)NCCNCc1cccc(C(=O)NCc2cccc(C(F)(F)F)c2)c1 | 1.08 µM
C=CCOc1ccc(CNC2CCN(Cc3ccccc3)CC2)cc1Br | 1.42 µM
c1ccc(COc2ccc(Cn3ccc(-c4ccc(-n5ccnc5)cc4)n3)cc2)cc1 (tested in a mixture with another compound) | 1.02 µM
CC(C)CNC(=O)c1cncc(-c2ccc(CN(C)C3CCN(C)CC3)cc2)c1 | 0.88 µM
COc1cc2nc(N3CCC(CNC(=O)c4ccc(-c5ccc(C#N)cc5C)cc4)CC3)nc(N)c2cc1OC | 0.18 µM
CCOc1ccc(CN(CCc2ccc3c(c2)OCO3)Cc2cc(OC)ccc2O)cc1 | 0.75 µM
O=C(Nc1cc(Cl)c(Cl)cc1NC(=O)c1cccc(-c2ccccc2)c1O)c1cccc(-c2ccccc2)c1O | 0.51 µM
CCOC(=O)c1[nH]c(-c2ccccc2)nc1-n1nc(C)cc1C | 0.69 µM
COc1cc(NC(=O)c2sc(-c3ccc(Cl)cc3)cc2NC(=O)c2ccncc2)ccc1OCCN1CCCC1 | 0.03 µM
CCOc1cc(C=NNc2nc3ccccc3[nH]2)ccc1OCc1ccc([N+](=O)[O-])cc1 | 1 µM
COc1ccc2nccc([C@@H](O)CN3CCC(NCc4ccc5nsnc5c4)CC3)c2c1 | 0.96 µM
Cc1cc(C)n(Cc2ccc(C(=O)NCC3CCCCC3)cc2)n1 | 0.96 µM
Cc1cc(OCCCN=C(N)c2ccc3ccccc3c2)c(C(C)C)cc1Cl | 0.97 µM
OC1CCCN(Cc2cccc(-c3ccc(-c4nc5ccc(C(F)(F)F)cc5[nH]4)cc3)c2)C1 (stereo unspecified) | 0.69 µM
O=C(N[C@@H](Cc1ccccc1)C(=O)NC1CCCCCC1)c1ccc(O)c(-c2ccc(Cl)c(Cl)c2)c1 | 0.33 µM
OCCn1c(CNCCCNc2nc3ccccc3[nH]2)cc2c(Cl)cc(Cl)cc21 | 0.81 µM
CCCc1cc(O)c2c3c(c(=O)oc2c1)CN(C)CC3 | 0.87 µM

Structure (SMILES) | IC50
CCOc1ccc2nc(NC(=O)c3csnn3)sc2c1 | 0.48 µM
COc1ccc2ncc(C#N)c(CCN3[C@@H]4CC[C@H]3CC(NCc3ccc5c(n3)NC(=O)CS5)C4)c2c1 (stereo partly specified) | 0.81 µM
COc1ccccc1Cn1ccnc1SCC(=O)Nc1cc(C(F)(F)F)ccc1Cl | 0.1 µM
COc1cc(CNC(=S)NN=C(C)c2ccccn2)cc(OC)c1OC | 0.4 µM
Cc1nnnn1-c1ccc(C(=O)N2CCC3(CC2)CN(Cc2ccc(Cl)c(Cl)c2)C(=O)O3)cc1 | 0.18 µM
O=[N+]([O-])c1ccc(Oc2c(Cl)cc(S(=O)(=O)N3CCC(CN4CCC(c5c[nH]c6ccccc56)CC4)CC3)cc2Cl)c(Cl)c1 | 1 µM
CN1CCN(c2ccnc3ccc(NC(=O)Nc4ccc5c(c4)CCCC5=O)cc23)CC1 | 0.13 µM
O=C(Nc1ccc(Br)cc1)N(CCN1CCOCC1)CC(O)COCc1ccc(F)cc1 (stereo unspecified) | 1.04 µM
Cn1nccc1C(=O)NCCNCc1ccc(-c2ccc(-c3nc4ccc(C(F)(F)F)cc4[nH]3)s2)cc1 | 0.19 µM
COc1ccc(Nc2nc(NN=Cc3cc(Cl)ccc3O)nc(Nc3ccccc3)n2)cc1 | 0.65 µM
Cc1noc(=O)c2ccc(NC(=O)C(O)(CSc3ccccc3)CC(C)C)cc12 (stereo unspecified) | 0.72 µM
CC(C)CNCc1cccc(-c2ccc(CN(C(=O)NC3CCCCC3)C3CCN(Cc4ccccc4)CC3)cc2)c1 | 0.76 µM
COc1cccc(CNC(=O)c2ccnc(-c3cccc(CN(C)C4CCN(C)CC4)c3)c2)c1 | 0.83 µM
Cc1cccc2[nH]c(-c3cccc(-c4cccc(CNCCCN5CCCC5=O)c4)c3)nc12 | 0.74 µM
CC(C)Cn1c(N)cc(=O)n(C)c1=O | 0.98 µM
COc1ccc(Nc2nccc(-c3c(-c4cccc(NC(=O)c5c(F)cccc5F)c4)nn4ccccc34)n2)cc1Cl | 0.28 µM
O=C(Nc1cccc(-c2cccc(-c3nc4ccc(C(F)(F)F)cc4[nH]3)c2)c1)c1ccc(=O)[nH]n1 | 0.66 µM
Cc1cccc2[nH]c(-c3cccc(-c4ccc(NC(=O)c5cnn6cccnc56)cc4)c3)nc12 | 0.21 µM
CCOC(=O)c1cc(=O)c2ccc(OCC#N)cc2o1 | 1.03 µM
CCCCCCNCc1c(O)ccc2c(CNCCCCCC)c(O)ccc12 | 0.13 µM
O=C(Nc1ccc(N2CCN(Cc3c[nH]c4cc(F)ccc34)CC2)cc1)c1ccccc1-c1ccc(C(F)(F)F)cc1 | 0.99 µM
CCC1=C[C@@H]2CN(C1)Cc1c([nH]c3ccccc13)[C@@](C(=O)OC)(c1cc3c(cc1OC)N(C)[C@H]1[C@@](O)(C(=O)OC)[C@H](O)[C@]4(CC)C=CCN5CC[C@]31[C@@H]54)C2 | 0.87 µM
CC(C)C[C@H](NC(=O)c1cc2ccccc2s1)C(=O)N[C@H]1CCN(Cc2ccc(I)c(OC3CCN(C)C3)c2)C1 (stereo partly specified) | 0.92 µM
CN(C)Cc1c(O)ccc2[nH]c(-c3cccc(F)c3)nc12 | 1 µM

Structure (SMILES) | IC50
COc1ccc(CCN(C)CCCCc2ccc(NC(=O)c3cccc4c(=O)c5cc(F)ccc5sc34)cc2)cc1OC | 0.9 µM
CN(CCCCNC(=O)c1ccc(-c2ccccc2)cc1)C1CCc2c(O)cccc2C1 (stereo unspecified) | 0.72 µM
Cc1cc(-c2cccc3c(C(=O)N4CCc5cc6nccc(N7CCN8CCC[C@H]8C7)c6cc54)cccc23)cc(C)n1 | 0.71 µM
O=C(Nc1cc(C(F)(F)F)cc(C(F)(F)F)c1)N1CCC(CN2CCC(c3c[nH]c4ccccc34)CC2)CC1 | 0.19 µM
CCOC(=O)N1NC(=O)N(c2ccccc2)C1(c1ccccc1)c1ccccc1 | 0.7 µM
CC(Cc1ccc(NC(=O)CCCc2ccccc2)cc1)NCCc1cccc(Cl)c1 (stereo unspecified) | 0.95 µM
Nc1c2c(nc3cc(NC(=O)c4ccc([N+](=O)[O-])cc4)ccc13)CCCC2 | 0.47 µM
NC(=O)NC(=O)C=Cc1ccco1 | 0.15 µM
CNCCCN(C)C(=O)Oc1c(Br)c(C)nc(C)c1-c1ccc(Oc2ccc(OC(F)(F)F)cc2)cc1 | 0.39 µM
CN1CCN(c2cc3c(cc2Cl)CCN3C(=O)Cc2ccc(NC(=O)Nc3cccc4ccccc34)cc2)CC1 | 0.97 µM
Nc1c(Cl)cc(C(O)CNCCCCCOCCc2ccccc2)cc1C(F)(F)F (stereo unspecified) | 0.98 µM
CCOC(=O)c1[nH]c(-c2ccc(Cl)cc2)nc1NC(=S)NCCCN1CCOCC1 | 0.87 µM
Cc1cc(N[C@@H](Cc2ccccc2)C(=O)NCc2cccs2)nc(NCCc2ccccc2)n1 | 0.79 µM
N#CCCN1CCN(Cc2cccc(-c3ccc(-c4nc5ccccc5[nH]4)s3)c2)CC1 | 0.76 µM
O=[N+]([O-])c1ccc(-c2nc3ccc(C4=N[C@H]5CCCC[C@H]5N4)cc3[nH]2)cc1 | 0.69 µM
CN(C)C(=O)c1cc(CNCc2ccccc2)ccc1-c1cccc(CNCc2ccc(-c3ccccc3)cc2)c1 | 1.05 µM
CCC(C)CN1CCN(c2cc(NC(=O)c3cccs3)ccn2)C(C)C1 (stereo unspecified) | 1 µM
Cc1cc(C(=O)OCC(=O)Nc2c(C)n(C)n(-c3ccccc3)c2=O)c(C)n1-c1ccc(F)cc1 | 0.05 µM
OC(CNc1ccnc(Nc2cccc(Cl)c2)n1)c1ccccc1C(F)(F)F (stereo unspecified) | 0.9 µM
O=C(c1ccccc1)[C@H]1C[C@@H]1CN1CC=C(c2c[nH]c3ccccc23)CC1 | 0.53 µM
Nc1cc(-c2cc3c(OCc4ccccc4)cccc3[nH]2)ccn1 | 1.19 µM
NC(=O)COc1c(C2CCN(CCCCNC(=O)c3ccc(-c4ccc(Cl)cc4)c(O)c3)CC2)ccc2c1CCCC2 | 0.71 µM
CCn1c(-c2nonc2N)nc2c(-c3cccc(NC(=O)Nc4ccccc4Cl)c3)ncc(OCCCN)c21 | 0.67 µM
COc1cc(C(F)(F)F)nc2c(CNCCCNc3cc(=O)c4ccccc4[nH]3)scc12 | 1.18 µM
